This is an account of results in patent US9120727B2, “Process for the preparation of pleuromutilins” (NABRIVA THERAPEUTICS AG, priority 2010, dated 2015).

Data set [1] can be described thus: Comparative stability of crystalline and amorphous salts of compound I, stored at 60° C., HPLC. Format: physicochemical. The source says: In the following TABLE 4 comparative stability data of the corresponding crystalline and amorphous salts of compound I are shown. [table]
A short description of data set [2]: Solubility of crystalline salts in water, aqueous vehicles and biorelevant media. In kind it is physicochemical. The settings on record: 0.9% NaCl solution, FaSSIF and FeSSIF.
Data set [3] deals with Streptococcus pneumoniae ATCC49619. As to the kind of experiment: Minimum inhibitory concentration (MIC) in accordance with CLSI recommendations. In kind it is cell-based. The procedure:
(§1) The antimicrobial, e.g. antibacterial activity of 14-O-{[(4-amino-2-hydroxy-cyclohexyl)-sulfanyl]-acetyl}-mutilins was outlined in WO2008/113089. […] The minimum inhibitory concentration (MIC) was determined in accordance with CLSI recommendations.

Data set [4] concerns Staphylococcus aureus ATCC49951. The data set is described as above. In kind it is cell-based. The procedure:
as §1

[5] abbreviates: 28 d at 60° C., * sample did not fully dissolve in water, suspension analyzed.

Where a name gives a salt, the structure may show the parent alone. A value given as a limit tells only on which side of the number the result lay.

What is called MIC is the least concentration at which growth counts as inhibited. The low end stands for inhibition by little substance, the high end for a need for much substance.

Turning to `C=C[C@]1(C)C[C@@H](OC(=O)CS[C@@H]2CC[C@@H](N)C[C@H]2O)[C@]2(C)C(C)CC[C@]3(CCC(=O)[C@H]32)[C@@H](C)[C@@H]1O` (stereo partly drawn) [Acetate (Form B) crystalline, 14-O-{[(1R,2R,4R)-4-Amino-2-hydroxy-cyclohexyl-sulfanyl]-acetyl}-mutilin acetate, crystalline Form B], the figures for the “Area % of 14-O-{[(1R,2R,4R)-4-amino-2-hydroxy-cyclohexylsulfanyl]-acetyl}-mutilin (compound I) by HPLC stored at 60° C.” value in data set [1] (setting [5]) and in data set [1] (Initial) were 98.9 Area % and 99.5 Area %, respectively.

On to `C=C[C@]1(C)C[C@@H](OC(=O)CS[C@@H]2CC[C@@H](N)C[C@H]2O)[C@]2(C)C(C)CC[C@]3(CCC(=O)[C@H]32)[C@@H](C)[C@@H]1O` (stereo partly drawn) [Hydrogen maleate crystalline, 14-O-{[(1R,2R,4R)-4-Amino-2-hydroxy-cyclohexylsulfanyl]-acetyl}-mutilin hydrogenmaleate, crystalline Form 1], for which the solubility entry in data set [2] is “surprisingly high”.

With `C=C[C@]1(C)C[C@@H](OC(=O)CS[C@@H]2CC[C@@H](N)C[C@H]2O)[C@]2(C)C(C)CC[C@]3(CCC(=O)[C@H]32)[C@@H](C)[C@@H]1O` (stereo partly drawn) [L-Lactate crystalline, 14-O-{[(1R,2R,4R)-4-Amino-2-hydroxy-cyclohexylsulfanyl]-acetyl}-mutilin L-lactate, crystalline Form 1], the “Area % of 14-O-{[(1R,2R,4R)-4-amino-2-hydroxy-cyclohexylsulfanyl]-acetyl}-mutilin (compound I) by HPLC stored at 60° C.” value in data set [1] (setting [5]) was 98.3 Area %; in data set [1] (Initial), 99.4 Area %. Further, the solubility entry in data set [2] is reported as “surprisingly high”.

As for `C=C[C@]1(C)C[C@@H](OC(=O)CS[C@@H]2CC[C@@H](N)C[C@H]2O)[C@]2(C)C(C)CC[C@]3(CCC(=O)[C@H]32)[C@@H](C)[C@@H]1O` (stereo partly drawn) [compound of formula I, 14-O-{[(1R,2R,4R)-4-amino-2-hydroxy-cyclohexylsulfanyl]-acetyl}-mutilin], the minimal inhibitory concentration (MIC) in data set [3] and in data set [4] was less than 0.4 µg/mL in each case.
